For data set [1], the target named is T1, Lysine-specific histone demethylase 1A (Homo sapiens, UniProt O60341). Description: Inhibition of recombinant LSD1 ( unknown origin) expressed in Escherichia coli BL21 (DE3) cells using H3K4me2 peptide as substrate incubated for 30 mins in presence of FAD by fluorescence microplate reader analysis.
Data set [2] concerns BGC-823. Nature of the data set: Cytotoxicity against human BGC-823 cells co-cultured with T cells assessed as increase in TNF-alpha mRNA level at 1 uM by qRT-PCR analysis. It is filed as functional, cell-based. For orientation: In qPCR the cycle at which signal appears reflects the starting amount.
Data set [3] concerns MFC. Description: Antitumor activity against MFC cells implanted in 615 mouse assessed as increase in IFN-gamma mRNA level at 15 to 50 mg/kg, IG administered for 14 days by qRT-PCR analysis. It is filed as functional, organism-based. The settings on record: dose 15-50 mg/kg, time 14.0 day.
For data set [4], the target named is T1, Lysine-specific histone demethylase 1A. Description: Binding affinity to LSD1 in human BGC-823 cells assessed as thermal stability at 2 uM measured at 40 to 55 degreeC by cellular thermal shift assay. It is filed as cell-based.
The subject of data set [5] is BGC-823. Description: Cytotoxicity against human BGC-823 cells co-cultured with T cells assessed as increase in CCR10 mRNA level at 1 uM by qRT-PCR analysis. It is filed as functional, cell-based.
For data set [6], the system named is MFC. Description: Antitumor activity against MFC cells implanted in 615 mouse assessed as increase in IL-2 mRNA level at 15 to 50 mg/kg, IG administered for 14 days by qRT-PCR analysis. The data set is classed as functional, organism-based. The conditions noted are these: dose 15-50 mg/kg, time 14.0 day.
The test system of data set [7] is BGC-823. Description: Inhibition of stemness in human BGC-823 cells assessed as inhibition of CD44 expression at 0.5 to 2 uM by Western blot analysis. The data set is classed as functional, cell-based. The settings on record: dose 0.5-2 µM. (In western blotting, separated proteins are transferred to a membrane and probed.)
The subject of data set [8] is MFC. Nature of the data set: Antitumor activity against MFC cells implanted in 615 mouse assessed as increase in TNF-alpha mRNA level at 15 to 50 mg/kg, IG administered for 14 days by qRT-PCR analysis. The data set is classed as functional, organism-based. The settings on record: dose 15-50 mg/kg, time 14.0 day.
For data set [9], the system named is BGC-823. Nature of the data set: Cytotoxicity against human BGC-823 cells co-cultured with T cells assessed as increase in IFN-gamma mRNA level at 1 uM by qRT-PCR analysis. The data set is classed as functional, cell-based.
Data set [10] has as its system MFC. Description: Antitumor activity against MFC cells implanted in 615 mouse assessed as reduction in tumor size at 15 to 50 mg/kg, IG administered for 14 days. The data set is classed as functional, organism-based. The settings on record: dose 15-50 mg/kg, time 14.0 day.
In data set [11] the test system is MFC. Description: Antiproliferative activity against MFC cells assessed as inhibition of cell proliferation at 2 uM incubated for 5 days by CCK8 assay. The data set is classed as functional. The conditions noted are these: Mus musculus, 120 h, time 5 day. A general note: Tetrazolium dyes change colour on reduction, which living cells bring about.
Data set [12] concerns BGC-823. Description: Cytotoxicity against human BGC-823 cells co-cultured with T cells assessed as increase in 4-1BB mRNA level at 1 uM by qRT-PCR analysis. The data set is classed as functional, cell-based.
Data set [13] deals with BGC-823. Nature of the data set: Inhibition of stemness in human BGC-823 cells assessed as inhibition of OCT4 expression at 0.5 to 2 uM by Western blot analysis. It is filed as functional, cell-based. The settings on record: dose 0.5-2 µM.
Data set [14] has as its system MFC. Description: Downregulation of PD-L1 level in MFC cells incubated for 5 days by Western blot analysis. It is filed as functional, cell-based. The settings on record: Mus musculus, dose 0.5-2 µM, time 5.0 day.
In data set [15] the test system is BGC-823. Description: Inhibition of stemness in human BGC-823 cells assessed as inhibition of Nanog expression at 0.5 to 2 uM by Western blot analysis. The data set is classed as functional, cell-based. The conditions noted are these: dose 0.5-2 µM.
In data set [16] the test system is BGC-823. Nature of the data set: Cytotoxicity against human BGC-823 cells co-cultured with T cells assessed as increase in IL-2 mRNA level at 1 uM by qRT-PCR analysis. The data set is classed as functional, cell-based.
Data set [17] deals with BGC-823. Description: Cytotoxicity against human BGC-823 cells co-cultured with T cells assessed as increase in CCR7 mRNA level at 1 uM by qRT-PCR analysis. The data set is classed as functional, cell-based.
For data set [18], the system named is MFC. Nature of the data set: Antitumor activity against MFC cells implanted in 615 mouse assessed as decrease in PD-L1 expression in tumor administered intragastrically for 14 days by Western blot analysis. It is filed as functional, cell-based. The conditions noted are these: dose 15-50 mg/kg, route ig, time 14.0 day.
Data set [19] is described as follows: Toxicity in 615 mouse implanted with MFC cells assessed as kidney damage upto 50 mg/kg, IG measured after 14 days. It is filed as organism-based. The conditions noted are these: in vivo, po, 336 h, time 14 day.
The subject of data set [20] is BGC-823. Nature of the data set: Cytotoxicity against human BGC-823 cells co-cultured with T cells assessed as reduction in cell viability pretreated for 5 days followed by co-incubation with T cells for 4 days by CCK8 assay. It is filed as functional, cell-based. The settings on record: dose 0.5-2 µM, time 5.0 day.
For data set [21], the target named is T1, Lysine-specific histone demethylase 1A. Nature of the data set: Inhibition of LSD1 in human BGC-823 cells assessed as induction of H3K4me1 accumulation at 0.5 to 2 uM incubated for 5 days by Western blot analysis. The data set is classed as cell-based. The settings on record: dose 0.5-2 µM, time 5.0 day.
Data set [22] has as its system BGC-823. Nature of the data set: Inhibition of cell migration in human BGC-823 cells at 0.5 to 2 uM measured upto 48 hrs by fluorescence microscope based wound healing assay. It is filed as functional. The settings on record: dose 0.5-2 µM.
Data set [23] deals with BGC-823. Description: Downregulation of PD-L1 level in human BGC-823 cells incubated for 5 days by Western blot analysis. The conditions noted are these: dose 0.5-2 µM, time 5.0 day. It is filed as functional, cell-based.
Data set [24] has as its target Programmed cell death protein 1/Programmed cell death 1 ligand 1 (Homo sapiens) (UniProt Q15116+Q9NZQ7). Nature of the data set: Inhibition of Fc-tagged recombinant human PD-1 binding to PD-L1 in human BGC-823 cells incubated for 5 days by DAPI staining based confocal microscopic analysis. It is filed as cell-based. The conditions noted are these: dose 0.5-2 µM, time 5.0 day.

The nature of data set [25]: Toxicity in 615 mouse implanted with MFC cells assessed as liver damage upto 50 mg/kg, IG measured after 14 days. It is filed as organism-based. The settings on record: in vivo, po, 336 h, time 14 day.
A short description of data set [26]: Toxicity in 615 mouse implanted with MFC cells assessed as change in body weight upto 50 mg/kg, IG measured after 14 days. The conditions noted are these: in vivo, po, 336 h, time 14 day. It is filed as organism-based.
For data set [27], the system named is MFC. Nature of the data set: Antitumor activity against MFC cells implanted in 615 mouse assessed as inhibition of tumor growth administered intragastrically for 14 days. It is filed as functional, cell-based. The conditions noted are these: dose 15-50 mg/kg, route ig, time 14.0 day.
For data set [28], the target named is T1, Lysine-specific histone demethylase 1A. Description: Inhibition of LSD1 in human BGC-823 cells assessed as induction of H3K4me2 accumulation at 0.5 to 2 uM incubated for 5 days by Western blot analysis. The settings on record: dose 0.5-2 µM, time 5.0 day. It is filed as cell-based.
The subject of data set [29] is BGC-823. Nature of the data set: Inhibition of stemness in human BGC-823 cells assessed as inhibition of SOX2 expression at 0.5 to 2 uM by Western blot analysis. The data set is classed as functional, cell-based. The conditions noted are these: dose 0.5-2 µM.
In data set [30] the test system is MFC. Description: Downregulation of PD-L1 mRNA level in MFC cells at 0.5 to 2 uM incubated for 5 days by qRT-PCR analysis. The conditions noted are these: Mus musculus, dose 0.5-2 µM, time 5.0 day. It is filed as functional, cell-based.
For data set [31], the system named is BGC-823. Description: Downregulation of PD-L1 mRNA level in human BGC-823 cells at 0.5 to 2 uM incubated for 5 days by qRT-PCR analysis. It is filed as functional, cell-based. The settings on record: dose 0.5-2 µM, time 5.0 day.

Calls of active or inactive are those of the source. The rule behind the calls is not given here. Where only a bound is given, the exact number is not on record here.

Usually IC50 stands for the concentration that gives 50% inhibition. One may read the inhibition as the relative decrease from the control value, in per cent.

Turning to `CN(C)c1ccc(Nc2c3ccccc3nc3c(N(C)C)cccc23)cc1`, the IC50 in [1] is greater than 10 µM.
Same read-out and setting: as for `Cc1ccc2c(Nc3ccc(N(C)C)cc3)c3ccc([N+](=O)[O-])cc3nc2c1C`, the figure is greater than 10 µM; as for `CN(C)C(=O)c1ccc(Nc2c3ccccc3nc3ccccc23)cc1`, greater than 10 µM.
Same read-out and setting: then `CN(C)Cc1ccc(Nc2c3ccccc3nc3ccccc23)cc1`, with greater than 10 µM.
For the compound `Cc1ccc2nc3c(C)c(C)ccc3c(Nc3ccc(N(C)C)cc3)c2c1`, the result in [2], in [3], in [4], in [5], in data set [6] and in data set [8] was Active. The result in data set [9], in data set [10], in data set [12], in data set [16], in data set [17] and in data set [30] was Active. Further, in data set [31], the result was Active. For the same compound, the inhibition entry in data set [7], in data set [13], in [15], in data set [21], in data set [22] and in data set [28] was “Active” throughout. Also, the inhibition result in [29] is “Active”. Besides, the inhibition at 2 µM in data set [11] was greater than 10%. Also, the Activity result in data set [14] was “Dose-Dependent Effect”; in [18] it was “Dose-Dependent Effect”; in [19], “Non-Toxic”; in data set [20], “Dose-Dependent Effect”; in data set [23] it was “Dose-Dependent Effect”; in data set [25], “Non-Toxic”. For the same compound, the Activity result was “Non-Toxic” in data set [26] and “Dose-Dependent Effect” in data set [27]. Also, in data set [24], the inhibition entry is “Dose-Dependent Effect”. For the same compound, the IC50 in data set [1] was found to be 0.013 µM.

The values are drawn from ChEMBL document CHEMBL5625213, “Novel acridine-based LSD1 inhibitors enhance immune response in gastric cancer” (Eur J Med Chem, 2023).
